Measured values from patent US20240139183A1, “COMPOUND FOR SUPPRESSING NONSENSE-MEDIATED MRNA DECAY” (RiboTech Co., Ltd., priority 2021, published 2024).

What was measured:
[1] = test system: NMD (HeLa cell line constitutively expressing the NMD-target mRNA); test: NMD inhibitory effect in HeLa reporter cell line: RLuc mRNA (real-time PCR) and protein (dual luciferase assay); format: cell-based; conditions: 5 μM, 12 hours, FIG. 4; for amount of RLuc mRNA: real-time PCR
From the text: In Example 1, a beta-globin normal gene or the gene including a premature termination codon (PTC) found in genetic diseases was inserted into the downstream of a chemiluminescence gene, Renilla luciferase (RLuc). Normal gene-inserted mRNA was not targeted by NMD, whereas when a gene having PTC was inserted, the mRNA became a NMD target, and as a result, mRNA was quickly broken down and the expression level of RLuc was reduced.
Accordingly, a HeLa cell line constitutively expressing the NMD-target mRNA was prepared, and simultaneously, the cell line was designed to constitutively express a firefly luciferase (FLuc) gene, which was not a target of NMD, and a total of three cell lines NMD20, NMD4, and NMD5 with the same composition were obtained. In order to confirm whether the HeLa cell line prepared above was suitable for measuring NMD efficiency, the following two experiments were performed.
The NMD inhibitory effect of Compounds 1 to 3 was confirmed using the HeLa cell line prepared in Example 1. After treating the cells with Compounds 1 to 3 at 5 μM for 12 hours, respectively, total RNA and protein were purified from the cells, respectively. Then, the amounts of RNA and protein were quantified respectively through real-time PCR and dual luciferase assay methods. The results were illustrated in FIG. 4.

UPF1 = test: Western blotting of UPF1 phosphorylation in treated cells; format: cell-based; conditions: 5 μM, 12 hours, FIG. 5
Experimental: Phosphorylation of UPF1 was known to be one of the most important factors in NMD. In Example 3.1, the effect of the three types of compounds of the present invention on phosphorylation of UPF1 was examined. The cells were treated with each compound at 5 μM for 12 hours, and then total proteins were purified. Then, western blotting was performed using each antibody capable of recognizing Upf1 or Upf1 phosphorylated at a specific site.

[2] = biological target: T1, binding between UPF1 and UPF2 (Homo sapiens, UniProt Q92900); test: FLAG-UPF1 immunoprecipitation / western blotting for UPF1-UPF2 binding; format: cell-based; conditions: 5 μM, 1 hour; FLAG-UPF1 overexpressed; immunoprecipitation with FLAG antibody; FIG. 6
T1 construct: expressed in transfected cells
T1 sequence (Q92900 1-1129): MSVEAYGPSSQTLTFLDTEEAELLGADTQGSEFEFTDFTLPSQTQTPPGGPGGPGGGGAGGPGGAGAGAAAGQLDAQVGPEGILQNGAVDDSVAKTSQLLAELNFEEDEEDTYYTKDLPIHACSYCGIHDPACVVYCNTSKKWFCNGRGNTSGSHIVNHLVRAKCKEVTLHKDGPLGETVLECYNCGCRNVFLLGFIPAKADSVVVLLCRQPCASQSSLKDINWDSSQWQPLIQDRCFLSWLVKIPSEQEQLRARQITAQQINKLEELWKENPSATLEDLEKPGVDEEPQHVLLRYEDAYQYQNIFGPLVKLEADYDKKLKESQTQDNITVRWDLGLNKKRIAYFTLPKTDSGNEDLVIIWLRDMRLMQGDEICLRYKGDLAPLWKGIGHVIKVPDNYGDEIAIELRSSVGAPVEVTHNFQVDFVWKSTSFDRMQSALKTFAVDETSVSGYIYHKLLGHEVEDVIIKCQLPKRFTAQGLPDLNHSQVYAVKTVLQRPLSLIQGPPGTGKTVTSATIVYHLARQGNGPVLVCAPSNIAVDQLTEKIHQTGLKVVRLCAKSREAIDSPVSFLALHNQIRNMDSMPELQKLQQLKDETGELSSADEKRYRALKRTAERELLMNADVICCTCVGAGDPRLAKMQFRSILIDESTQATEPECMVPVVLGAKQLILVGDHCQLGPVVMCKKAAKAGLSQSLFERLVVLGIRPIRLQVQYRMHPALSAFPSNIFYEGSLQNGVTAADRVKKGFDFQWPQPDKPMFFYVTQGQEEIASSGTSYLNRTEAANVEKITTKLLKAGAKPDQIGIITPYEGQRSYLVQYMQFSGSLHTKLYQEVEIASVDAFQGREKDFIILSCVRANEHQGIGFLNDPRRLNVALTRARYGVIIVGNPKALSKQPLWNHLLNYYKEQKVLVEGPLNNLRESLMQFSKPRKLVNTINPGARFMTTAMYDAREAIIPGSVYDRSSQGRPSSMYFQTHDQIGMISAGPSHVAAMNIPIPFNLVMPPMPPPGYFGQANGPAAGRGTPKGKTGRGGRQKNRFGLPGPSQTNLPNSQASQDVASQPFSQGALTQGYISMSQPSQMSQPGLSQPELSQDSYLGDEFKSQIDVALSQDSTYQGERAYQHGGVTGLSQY
Experimental: In the cell line, DNA expressing FLAG-UPF1 was transiently overexpressed.
After treating the cell line with each compound at 5μM for 1 hour, a cell extract was obtained. Immunoprecipitation was performed on the cell extract obtained using a FLAG antibody.
Proteins before and after immunoprecipitation were analyzed by western blotting.

[3] = test system: NMD steps (Upf1, Upf2, Upf3X tethered to reporter β-6bs mRNA); test: Tethering assay: MS2-Upf1, MS2-Upf2, MS2-Upf3 tethered to 3' UTR of reporter mRNA in HeLa cell line, real-time PCR; format: cell-based; conditions: 5 μM, 6 hours or 12 hours, FIGS. 8 and 9
Experimental: An NMD-based search system capable of artificially reducing the amount of reporter mRNA was constructed, after artificially tethering proteins Upf1, Upf2, and Upf3X acting in each step of NMD to 3′ UTR of reporter mRNA (FIG. 7). Using this method, it was attempted to verify which step of NMD the three types of compounds acted on.
After treating the cell line with each compound at 5 μM for 6 hours or 12 hours, a cell extract was obtained. Thereafter, the relative amount of reporter mRNA was measured through real-time PCR.

[4] = test system: dystrophin protein in cells derived from patients with DMD; test: Dystrophin protein by Western blotting in DMD patient-derived cell line; format: cell-based, human; conditions: 5 μM, 12 hours, FIG. 11

| SMILES | amount of RLuc mRNA [1] | effect on phosphorylation of UPF1 (UPF1) | effect on UPF1-UPF2 binding [2] | step of NMD targeted (relative amount of reporter mRNA) [3] | protein translation of RLuc ([1]; dual luciferase assay) | amount of dystrophin protein [4] |
| --- | --- | --- | --- | --- | --- | --- |
| COc1cc2ncnc(-n3nc(-c4ccccn4)nc3N)c2cc1OC [Compound 3, 1-(6,7-Dimethoxy-4-quinazolinyl)-3-(2-pyridinyl)-1H-1,2,4-Triazol-5-amine] | significantly increased the amount of mRNA | did not significantly affect phosphorylation of UPF1 | did not significantly affect the UPF1-UPF2 binding | did not target the UPF1-UPF2 and UPF2-UPF3 steps | – | – |
| Cn1c(=O)n(-c2ccc(C(C)(C)C#N)cc2)c2c3cc(-c4cnc5ccccc5c4)ccc3ncc21 [Compound 2, 2-methyl-2-{4-[3-methyl-2-oxo-8-(quinolin-3-yl)-2,3-dihydro-1H-imidazo[4,5-c]quinolin-1-yl]phenyl}propanenitrile] | significantly increased the amount of mRNA | significantly inhibited phosphorylation of UPF1 | did not significantly affect the UPF1-UPF2 binding | did not target the UPF1-UPF2 and UPF2-UPF3 steps | – | – |
| COc1ncc(-c2ccc3nccc(-c4ccnnc4)c3c2)cc1NS(=O)(=O)c1ccc(F)cc1F [Compound 1, 2,4-Difluoro-N-{2-(methyloxy)-5-[4-(4-pyridazinyl)-6-quinolinyl]-3-pyridinyl}benzenesulfonamide] | – | did not significantly affect phosphorylation of UPF1 | significantly inhibited the UPF1-UPF2 binding | targeted a UPF1-UPF2 step | increased protein translation of RLuc | increased |
